Laboratory results from paper PMC4878443 (Journal of medicinal chemistry, 2015).

The compounds below were run against human LSD1 (Homo sapiens, UniProt O60341) (assay: LSD1 inhibition, mass spectrometry). Details: not given.
Format: biochemical

Structure (SMILES)	LSD1 inhibition in words
c1ccc(-c2ccc(OCC3CCNCC3)cn2)cc1 [Compound 3]	inactive
c1ccc(-c2cc(OCC3CCNCC3)cnc2-c2ccccc2)cc1 [Compound 11]	inactive
C#Cc1ccc(-c2cc(OCC3CCNCC3)cnc2-c2ccc(C)cc2)cc1 [Compound 28]	activity loss
Cc1ccc(-c2ncc(OCC3CCNCC3)cc2-c2ccc(C(=O)O)cc2)cc1 [Compound 29]	completely lose inhibitory activities
Cc1ccc(-c2ncc(OCC3CCNCC3)cc2-c2ccc(CO)cc2)cc1 [Compound 30]	completely lose inhibitory activities
Cc1ccc(-c2ncc(OCC3CCNCC3)cc2-c2ccc(CN3CCCCC3)cc2)cc1 [Compound 36]	almost inactive
Cc1ccc(-c2ncc(O)cc2-c2ccc(C#N)cc2)cc1 [Compound 44]	Loss of activity
Cc1ccc(-c2ncc(OCc3ccccc3)cc2-c2ccc(C#N)cc2)cc1 [Compound 45]	Loss of activity

Same assay, conditions: Ki ratio to compound 17

Structure (SMILES)	fold less active against LSD1 than compound 17
C#Cc1ccc(-c2cc(OCC3CCNCC3)cnc2-c2ccc(C)cc2)cc1 [Compound 28]	> 1,700 fold

Each compound was assayed on normal fibroblast cells WI-38 (assay: Cell growth inhibition). Details: not given.
Format: cell-based

Structure (SMILES)	activity against growth of normal cells in words
CN1CCN(C(=O)CN[C@H]2C[C@@H]2c2ccc(-c3ccc(F)nc3)cc2)CC1 [Compound S2]	inactive
